Data: publication PMC3836994, “Killer Bee Molecules: Antimicrobial Peptides as Effector Molecules to Target Sporogonic Stages of Plasmodium” (PLoS Pathogens, 2013)
Several values for one entry are separate records, joined by “and”; a condition that tells them apart may be missing. Identical values can stand only once. Entries after “also recorded” stand apart in the source; their conditions may differ.

Key:
P. berghei ookinetes = assay: P. berghei ookinete viability in vitro (erythrosin B); format: cell-based, Plasmodium berghei; conditions: 30 min; for Reduction in ookinete viability: versus control
Procedure: Our primary aim was to target parasites in mosquitoes before they cross the midgut wall, therefore AMPs were first assessed for their ability to kill ookinetes in vitro. […] Ookinete cultures of P. berghei were established from gametocytaemic blood as previously described. Parasites were enriched using cold 0.17M ammonium chloride after 18 h of culture and washed thoroughly with PBS (phosphate buffered saline). Parasites were seeded in triplicate wells of a 96-well microtitre plate at a density of 1×10^5/ml in a volume of 47.5 µl Schneider's insect medium (Invitrogen) with 2.5 µl of the test AMP (final concentration of 50 µM). Ookinetes were incubated for 30 min in conjunction with triplicate control wells containing medium with 2.5 µl of water instead of AMP. A sub-sample of parasites was then added to an equal volume of 5% erythrosin B to assess viability (150 ookinetes in total, taken from 3 wells). Each of the 33 AMPs was screened in this way and assays were performed 3 times. AMPs displaying a high degree of toxicity (>90% of ookinetes displaying erythrosin B staining) underwent further ookinete assays using a concentration of 100 µM AMP. To assess synergistic effects, combinations of two peptides were also tested at a concentration of 25 µM per AMP, in the assay described above.

[1] = test system: An. gambiae (Mali strain); assay: Mosquito longevity after blood feeds containing AMP; format: in vivo, Anopheles gambiae; conditions: for Significance of effect on longevity over 10 days: 50 µM AMP, Kaplan-Meier, Wilcoxon, peptide vs control; for Percent alive, peptide: over 10 days, 50 µM AMP in human blood, feeds on days 0 and 7, 3 or 4 replicates
Procedure: (§1) Female An. gambiae (Mali strain, 3–5 days old) were used to establish the effects of AMPs on mosquito longevity and fecundity in the absence of confounding factors introduced with parasite infection. Two hundred 3–6 day old females were fed on human O+ whole blood supplemented with 50 µM AMP (or water control, 1 ml total volume) via feeding chambers of a Hemotek membrane feeding system. Fully engorged mosquitoes were randomly moved into four separate cages, each containing 25 mosquitoes, to facilitate monitoring. Mortality rates were recorded daily for a 10-day period, and oviposition sites were provided on the second and third night post-feeding. A second blood feed containing the same AMP was administered 7 days later to mimic the likelihood that mosquitoes would feed at least twice in the field during the development of sporogonic stages of the malaria parasite. Oviposition sites were again provided to assess fecundity through the number of eggs laid as an average per surviving mosquito. Assays for each AMP were repeated in triplicate on separate generations of mosquitoes. Due to egg retention under experimental conditions, egg production is best measured by dissecting mosquitoes that have not been provided with an oviposition site. However, this is not a feasible method of determining fecundity when longevity is also being measured.

[2] = test system: An. gambiae (Mali strain); assay: Mosquito oviposition after blood feed containing AMP; format: in vivo, Anopheles gambiae; conditions: for Significance of effect on oviposition: 50 µM AMP, one-way ANOVA, peptide vs control; for Mean no. of eggs laid per mosquito, peptide: after first feed with 50 µM AMP, eggs laid over two nights, averaged per surviving mosquito, 3 or 4 replicates
Procedure: as §1

P. falciparum [3] = assay: Cultured P. falciparum gametocytes membrane-fed to An. gambiae (oocyst prevalence and intensity); format: in vivo, Plasmodium falciparum; conditions: 50 µM; for Oocyst intensity (mean number of oocysts per gut, range in parentheses), peptide / Oocyst prevalence (oocyst positive mosquitoes), peptide: cultured gametocytes, An. gambiae
Procedure: P. falciparum NF54 gametocytes were produced through large-scale automated culture at the Pasteur Institute, Paris, [69]. Gametocytes were grown in 10 ml RPMI 1640 medium (Invitrogen), supplemented with 25 mM HEPES and L-glutamine, 10% heat-inactivated human serum and hypoxanthine (20 mg/L) under a constant gas supply (5% CO2, 1% O2, 94% N2). Fresh red blood cells (RBCs) were added to obtain a 7% haematocrit. Fourteen days after initiating the culture, gametocyte maturity was assessed on thin Giemsa-stained blood smears, and male gametocyte maturity verified by exflagellation tests. Gametocyte cultures were centrifuged for 5 min at 1500 rpm and the ∼500–600 µl pellet resuspended in fresh RBCs and AB human serum to give a final haematocrit of 40%.
Blood containing mature gametocytes (475 µl) was added to 25 µl of the test AMP (50 µM final concentration). Peptides were replaced by 25 µl of sterile deionized water for each control. The blood/parasite/peptide mixture was placed in a Hemotek membrane feeder, previously warmed to 37°C. For each feed, 70 to 100 nulliparous female An. gambiae mosquitoes were left to feed in the dark for 15 min and only fully engorged females were transferred to small cages and provided with 10% sucrose containing 0.05% PABA. After 8 days, 30 midguts were dissected and stained with bromo fluorescein for the detection of oocysts.

P. falciparum [4] = assay: Field P. falciparum from gametocyte carriers membrane-fed to An. gambiae (Mali); format: in vivo, Plasmodium falciparum; conditions: Replicate 1, 50 µM
Source text: Nyaganabougou, a village approximately 60 km south-west of the Malian capital, Bamako, was used as a site for the source of donors of malaria-infected blood. Due to its proximity to the river Niger, which provides perennial mosquito breeding sites, Nyaganabougou has high numbers of infected individuals and an extended transmission season. Mosquitoes used to establish the An. gambiae Mali colony used for this study were originally collected in the village of Kenieroba (a distance of 15 km from Nyaganabougou). Potential male and female gametocyte carriers between the ages of 6–10 were screened by thick smear and parasite species and density determined by local staff, led by Saibou Doumbia.
Gametocyte carriers were taken to the Malaria Research and Training Centre at the University of Bamako for blood donation. Approximately 4 ml of blood was extracted from carriers and immediately divided into 3 Hemotek membrane feeders for testing 2 separate AMPs and one control for each carrier. Peptides were added to 950 µl of gametocytaemic blood for a final concentration of 50 µM. All parasite-positive individuals were subsequently treated appropriately for parasites and associated symptoms, as determined by, and carried out by, local health workers in Nyaganabougou.
Approximately 120 adult female An. gambiae (Mali, 4–7 days old) were starved overnight, and allowed to feed on the gametocytaemic blood/AMP mix for 30 min. Engorged females were maintained on 10% glucose with 0.05% PABA for 8 days before dissection. No oviposition sites were provided so that fecundity could be measured by determining retained eggs. Mosquito wing length, numbers of retained eggs and oocysts were recorded, and triplicate peptide experiments were carried out on different mosquito cohorts, using blood from different donors. Where possible, a minimum of 50 mosquitoes were dissected for each condition.

[5] = test system: An. gambiae (Mali strain); assay: Mosquito longevity after blood feeds containing AMP; format: in vivo, Anopheles gambiae; conditions: 50 µM AMP in blood on days 0 and 7; extended to 30 days
[6] = test system: Anopheles gambiae Sua 4.0 cells; assay: Sua 4.0 mosquito cell growth (cell counts); format: cell-based; conditions: 25 µM AMP; for Average number of cells over 3 replicates, peptide: seeded 30×10^4/ml, mean of 3 experiments
Procedure: (§2) To establish potential effects of AMPs on mosquito cells, the An. gambiae Sua 4.0 cell line was used. This facilitated an initial high-throughput screening and provided insights into AMP toxicity, mode of action (lytic or other) and speed of action. Sua 4.0 cells were maintained at 27°C in Schneider's insect medium supplemented with 10% FBS (foetal bovine serum) in T25 culture flasks (Fisher, UK).
(§3) Each AMP was tested separately to establish if it affected cell viability and growth. […] Cells were maintained for 3, 6, 24 or 48 h, after which they were resuspended and a sub-sample from duplicate wells counted using a haemocytometer. To establish cell viability after 48 h (whether simply arrested in development or non-viable), resuspended cells were added to an equal volume of 5% erythrosin B vital dye and viable cells excluding the stain were counted. The viability of 100 cells in triplicate wells was recorded. Each AMP assay was performed in triplicate and included a negative control minus the peptide (5 µl of water alone added to the medium) and a further control of 5 µl of 10% SDS (sodium dodecyl sulphate) substituted for the AMP as this causes 100% cell lysis.

[7] = test system: Anopheles gambiae Sua 4.0 cells; assay: Sua 4.0 mosquito cell viability (erythrosin B exclusion); format: cell-based; design: dose or concentration left out as unconfirmed; conditions: after 48 h culture; erythrosin B exclusion, 100 cells in triplicate wells
Procedure: as §2, §3

P. berghei = P. berghei infections in Anopheles stephensi (oocyst prevalence and intensity); format: in vivo, Plasmodium berghei; conditions: for Prevalence (proportion of infected mosquitoes), peptide: 50 µM peptide in gametocytaemic mouse blood fed to An. stephensi; for Intensity (mean number of oocysts, range in parentheses), peptide: 50 µM peptide, An. stephensi
Procedure: To assess the effects of AMPs on parasites in vivo, mouse blood containing P. berghei gametocytes was obtained by cardiac puncture and 475 µl was rapidly mixed with 25 µl (50 µM final concentration) of AMP. This mixture was fed to 100 nulliparous 3–5 day old female An. stephensi. A further 475 µl of blood from the same infection was mixed with 25 µl of distilled water to act as a control. Mosquitoes were maintained at 19°C for optimum parasite development. Between 30 and 50 mosquitoes were dissected after 10 days. Mosquito wing length, numbers of retained eggs and oocysts were recorded in triplicate experiments carried out on different mosquito cohorts.

[8] = 50 µM of single peptide, n = 150 ookinetes per treatment per replicate
[9] = Replicate 1, dissected after 8 days
[10] = over the three replicates, 50 µM

Row | Substance | Average ookinete viability (3 reps), peptide (P. berghei ookinetes; [8]) | Reduction in ookinete viability (P. berghei ookinetes; 50 µM of single peptide) | Significance of effect on longevity over 10 days [1] | Percent alive, peptide [1] | Significance of effect on oviposition [2] | Mean no. of eggs laid per mosquito, peptide [2] | Oocyst intensity (mean number of oocysts per gut, range in parentheses), peptide (P. falciparum [3]; Replicate 1) | Oocyst prevalence (oocyst positive mosquitoes), peptide (P. falciparum [3]; [9]) | Oocyst intensity (mean number of oocysts per gut, range in parentheses), peptide (P. falciparum [3]; Replicate 2) | Oocyst prevalence (oocyst positive mosquitoes), peptide (P. falciparum [3]; Replicate 2) | Oocyst intensity (mean number of oocysts per gut, range in parentheses), peptide (P. falciparum [3]; Replicate 3) | Oocyst prevalence (oocyst positive mosquitoes), peptide (P. falciparum [3]; Replicate 3) | other results
1 | Mastoparan X | 41% | 57% | N/S | 84% | N/S | 44 | 2 (0–11) | 47% (30) | 2 (0–29) | 40% (30) | 11 (0–72) | 60% (30) | Average ookinete viability (3 reps), peptide (P. berghei ookinetes; 100 µM of single peptide): 4%; Reduction in ookinete viability (P. berghei ookinetes; 100 µM of single peptide): 96%; Oocyst prevalence (oocyst positive mosquitoes), peptide (P. falciparum [4]; blood of gametocyte carriers, progeny of field An. gambiae): 45% (40); Oocyst intensity (mean number of oocysts per gut, range in parentheses), peptide (P. falciparum [4]; field parasites and mosquitoes): 3 (0–21); Effect on longevity over 30 days (in words) [5]: no significant long-term effects on longevity
2 | Melittin | 0% | 100% | N/S | 84% | N/S | 41 | 0 | 0% (30) | <1 (0–1) | 17% (30) | 6 (0–74) | 37% (30) | Reduction in cell number (compared to control) ([6]; 3 hrs in culture): 84%; Average number of cells over 3 replicates, peptide ([6]; 3 hrs in culture, haemocytometer count of duplicate wells): 50000 mL⁻¹; Reduction in cell number (compared to control) ([6]; 24 hrs in culture): 100%; Average number of cells over 3 replicates, peptide ([6]; 24 hrs in culture): no cells remaining and 0 ×10^4/ml; Reduction in cell number (compared to control) ([6]; 48 hrs in culture): 100%; Average number of cells over 3 replicates, peptide ([6]; 48 hrs in culture): 0 mL⁻¹; Average viability of cells (3 replicates), peptide [7]: no intact cells remained; also recorded: No remaining cells; Prevalence (proportion of infected mosquitoes), peptide (P. berghei; Replicate 1): 98% (50); Intensity (mean number of oocysts, range in parentheses), peptide (P. berghei; Replicate 1): 50 (0–192); Prevalence (proportion of infected mosquitoes), peptide (P. berghei; Replicate 2): 82% (49); Intensity (mean number of oocysts, range in parentheses), peptide (P. berghei; Replicate 2): 28 (0–160); Prevalence (proportion of infected mosquitoes), peptide (P. berghei; Replicate 3): 72% (50); Intensity (mean number of oocysts, range in parentheses), peptide (P. berghei; Replicate 3): 31 (0–412); Average reduction of parasite prevalence (P. berghei; [10]): 10%; Mean oocysts per midgut (P. berghei; [10]): 37 oocysts per midgut; Reduction of infection intensity (P. berghei; over the three replicates, 50 µM, control mean 114 oocysts): 68%; Average reduction of intensity of infection (P. falciparum [3]; over three replicates): 57%; Average reduction of prevalence (P. falciparum [3]; over three replicates): 60%
